In one data set the test system is ABCG2. The following applies: Abcg2-knockout mice, MDCKII-ABCG2 cells; cited from earlier work.
A further data set relates to ABCG2 mRNA. Nature of the data set: Gene induction study (qRT-PCR) in MCF-7 cells. The class given is cell-based, Human. The conditions noted are these: 0.5 µM, 24 and 48 h. As to the method: (§1) Gene expression analyses based on quantitative real-time reverse transcription PCR (qRT-PCR) were performed as described previously. MCF-7 cell line (3.8×10^5 cells/well) was seeded in 12-well plates 24 h before induction experiments. […] After 24 and 48 h intervals, samples were collected by using TRI Reagent. Subsequently, total RNA was isolated from the cells using the chloroform/isopropanol method. Reverse transcription of 1 μg RNA to cDNA was conducted with ProtoScript II Reverse Transcriptase using T100 Thermal Cycler (Bio-Rad Laboratories, Hercules, CA, USA) according to the two-step protocol described previously. The expressions of ABCB1, ABCC1, and ABCG2 genes were measured by qRT-PCR using specific TaqMan assays with QuantStudio 6 machine (Life Technologies, Carlsbad, CA, USA). qRT-PCR reactions were run under predefined thermal cycling conditions (95 °C for 10 min, then 40 repeats of a cycle of 95 °C for 15 s and 60 °C for 60 s). GAPDH and B2M were used as house-keeping genes; the fold-changes in target genes’ expressions were determined according to the 2^-ΔΔCt method.
(In general: Real-time PCR tracks product formation cycle by cycle.)

The test system of the next data set is ABCC1 mRNA. Description: Gene induction study (qRT-PCR) in MCF-7 cells. The conditions noted are these: 0.5 µM, 24 and 48 h. The class given is cell-based, Human. As to the method: as §1
In a further data set the test system is ABCB1 mRNA. Nature of the data set: Gene induction study (qRT-PCR) in MCF-7 cells. Type of data set: cell-based, Human. The following applies: 0.5 µM, 24 and 48 h. As for the experimental part: as §1
In data set [1] the target is T1, ABCB1 (Homo sapiens, UniProt P08183). The conditions noted are these: 12-days exposure; MCF-10A; cited from earlier work.
T1 sequence (P08183 whole entry): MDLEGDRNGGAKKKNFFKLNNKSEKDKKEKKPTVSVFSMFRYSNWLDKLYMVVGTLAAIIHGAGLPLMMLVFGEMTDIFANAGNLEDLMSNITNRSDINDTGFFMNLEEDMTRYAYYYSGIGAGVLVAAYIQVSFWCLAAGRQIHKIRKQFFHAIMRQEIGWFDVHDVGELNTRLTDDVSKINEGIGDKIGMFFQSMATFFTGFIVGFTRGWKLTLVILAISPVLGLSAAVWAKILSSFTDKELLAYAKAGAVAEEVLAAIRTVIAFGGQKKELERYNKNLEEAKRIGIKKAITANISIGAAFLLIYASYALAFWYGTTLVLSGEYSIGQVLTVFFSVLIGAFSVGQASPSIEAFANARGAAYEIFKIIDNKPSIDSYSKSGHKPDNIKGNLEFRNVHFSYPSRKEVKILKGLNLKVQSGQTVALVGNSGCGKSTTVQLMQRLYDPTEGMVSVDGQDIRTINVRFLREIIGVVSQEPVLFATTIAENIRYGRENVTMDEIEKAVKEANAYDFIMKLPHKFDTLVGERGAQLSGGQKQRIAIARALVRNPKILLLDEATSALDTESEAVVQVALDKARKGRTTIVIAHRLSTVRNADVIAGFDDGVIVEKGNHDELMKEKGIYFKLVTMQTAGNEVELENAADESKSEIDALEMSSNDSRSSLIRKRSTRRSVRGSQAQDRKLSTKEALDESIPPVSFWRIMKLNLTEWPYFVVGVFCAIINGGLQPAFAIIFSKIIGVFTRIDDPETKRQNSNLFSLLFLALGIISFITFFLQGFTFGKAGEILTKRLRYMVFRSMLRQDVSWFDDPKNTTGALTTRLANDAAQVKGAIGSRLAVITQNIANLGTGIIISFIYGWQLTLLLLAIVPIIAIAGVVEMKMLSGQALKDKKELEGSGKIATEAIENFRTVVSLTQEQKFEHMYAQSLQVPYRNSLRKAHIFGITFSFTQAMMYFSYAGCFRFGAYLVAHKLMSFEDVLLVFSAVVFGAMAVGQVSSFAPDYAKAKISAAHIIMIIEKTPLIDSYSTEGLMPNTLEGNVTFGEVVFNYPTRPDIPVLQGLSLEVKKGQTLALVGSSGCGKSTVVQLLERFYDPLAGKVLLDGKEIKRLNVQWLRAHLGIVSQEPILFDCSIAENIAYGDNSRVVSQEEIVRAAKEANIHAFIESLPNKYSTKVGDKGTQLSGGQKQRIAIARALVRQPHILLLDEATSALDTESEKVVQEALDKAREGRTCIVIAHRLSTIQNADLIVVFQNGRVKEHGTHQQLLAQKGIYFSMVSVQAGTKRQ
For a further data set, the system named is MDCKII-par cells. Nature of the data set: Accumulation assay in control parent cells. Type of data set: cell-based, Canine. As for the experimental part:
(§2) The conduction of accumulation assays followed the slightly changed protocol described previously. In the study, MDCKII-par, MDCKII-ABCB1, MDCKII-ABCC1, MDCKII-ABCG2, and primary explants were seeded into 12-well plates in variant densities, 22.0 × 10^4, 15.0 × 10^4, 25.0 × 10^4, 22.0 × 10^4, and 15.0 × 10^4 cells/well, respectively. After 24 h incubation, two washing steps with 1 × PBS were applied. […] The cells were then incubated under standard conditions for 30 min. Next steps included placing the plates on ice, washing the cells with ice-cold 1 × PBS two-times, and detaching the cells with the ice-cold 10 × trypsin without phenol red. Following trypsinization, cells were resuspended in 1 × PBS containing 2% FBS. Subsequently, cell suspensions were transferred into the test tubes and kept on ice. The fluorescence in cells was measured immediately after the collection of their suspensions using flow cytometer Sony SA3800 Spectral Cell Analyzer (Sony Biotechnology, San Jose, CA, USA). SA3800 software (Sony Biotechnology, San Jose, CA, USA) was used to evaluate the data.

In a further data set the test system is A431-parent. Nature of the data set: MTT proliferation / drug combination assay. The following applies: Homo sapiens, A-431; A431 parental; comparative MTT, 48 h; read-out: antiproliferative IC50. The class given is cell-based. As to the method: (§3) The viability MTT assay was employed in several experimental sets, including induction studies, comparative viability assays, and drug combinations. First, 1.3 × 10^4 (MDCKII sublines), 1.2 × 10^4 (A431 sublines), 1.5 × 10^4 (MCF-7), and 1.0 × 10^4 (primary NSCLC explants) cells were seeded in 96-well plates. After seeding, cells were left to refresh in incubator for 24 h. Secondly, the medium was removed, and the serial dilutions of the drugs or drug combinations were added to the cells. Next to these variants, a medium with 40% DMSO and vehicle-containing media were tested as nonviable and unaffected viability controls, respectively. After an additional 48 h of incubation, the cells were washed with 1 × PBS and then treated with 1 mg/mL MTT solution in Opti-MEM. Subsequently, cells were incubated for 60 min under standard conditions. After MTT treatment, generated formazan crystals were solubilized with DMSO for 10 min. Wavelengths of 570 nm (formazan) and 690 nm (background) were used for absorbance measurements using a microplate reader Infinite 200 Pro NanoQuant (Tecan, Männedorf, Switzerland).
(§4) In vitro cell lines (MDCKII and A431) and primary NSCLC explants were seeded (see densities above) in 96-well plates and incubated for 24 h. […] Combined cells were incubated with the tested compounds for 48 h, and subsequently, MTT assay was performed to assess cell viability as described above. Besides IC50-shift analysis, CompuSyn 3.0.1 software (ComboSyn Inc., Paramus, NJ, USA) was used for the additional analysis of obtained data. This software works with the algorithms of the combination index (CI) method of Chou–Talalay, which is frequently used for the accurate quantification of drug combinations’ outcomes. According to the CI method principle, the combination effects were separated into three categories, including synergistic (CI < 0.9), additive (CI between 0.9–1.1), or antagonistic (CI > 1.1) ones.

The next data set has as its system A431-ABCC1. Nature of the data set: MTT proliferation / drug combination assay. The conditions noted are these: Homo sapiens, comparative MTT, 48 h, read-out: antiproliferative IC50. The class given is cell-based. As to the method:
as §3, §4

The next data set deals with A431-ABCG2. Nature of the data set: MTT proliferation / drug combination assay. The class given is cell-based. The following applies: Homo sapiens; A431-ABCG2; comparative MTT, 48 h; read-out: antiproliferative IC50. As to the method:
as §3, §4

The conditions of data set [2]: in-human mass-balance study; cited from earlier work.
A further data set relates to MCF-7 cells. Description: MTT viability experiment. Type of data set: cell-based, Human. The following applies: 0.5 µM, 48 h. As to the method: as §3
The target in data set [3] is T1, ABCB1. The arrangement: expressed in transfected cells; host or cells: MDCKII (canine kidney) subline MDCKII-ABCB1, gift of Dr. Alfred Schinkel. The conditions noted are these: Abcb1-knockout mice, MDCKII-ABCB1 cells; cited from earlier work.
For data set [4], the target named is T1, ABCB1. Description: Accumulation assay with daunorubicin in MDCKII-ABCB1 cells. The class given is cell-based. Also noted: expressed in transfected cells; host or cells: MDCKII (canine kidney) subline MDCKII-ABCB1, gift of Dr. Alfred Schinkel. The conditions noted are these: read-out: ABCB1 inhibition IC50. As for the experimental part:
as §2

The next data set relates to A431-ABCB1. Description: MTT proliferation assay. Type of data set: cell-based. The conditions noted are these: Homo sapiens, comparative MTT, 48 h, read-out: antiproliferative IC50. As to the method: as §3
(Tetrazolium dyes change colour on reduction, which living cells bring about.)

Structures are written as SMILES.

The IC50 is the concentration at which inhibition is half-maximal.

For the compound `Cn1ncnc1[C@H]1c2n[nH]c(=O)c3cc(F)cc(c23)N[C@@H]1c1ccc(F)cc1` [talazoparib, Talazoparib], the ABCG2 substrate status entry in the data set on ABCG2 is “not of ABCG2”. Moreover, the “change of ABCG2 mRNA expression vs vehicle control” value in the data set with ABCG2 mRNA is “did not trigger the transporters’ expression increase or decrease by more than 100% or 50%”. For the same compound, the “change of ABCC1 mRNA expression vs vehicle control” value with ABCC1 mRNA is given as “did not trigger the transporters’ expression increase or decrease by more than 100% or 50%”. In the data set on ABCB1 mRNA, the “change of ABCB1 mRNA expression vs vehicle control” value is “did not trigger the transporters’ expression increase or decrease by more than 100% or 50%”. Further, the “effect on ABCB1 mRNA” value at ABCB1 [1] is “upregulate”. Besides, the “effect on ABCB1 protein level” value at ABCB1 [1] was “fluctuating (concentration-dependent induction or downregulation)”. In addition, in the data set with MDCKII-par cells, the “effect on accumulations of probe substrate drugs” value is “did not exhibit any significant effects”. Moreover, the IC50 was 86.8 µM in the data set on A431-parent; 91.5 µM with A431-ABCC1; 91.8 µM in the data set on A431-ABCG2; more than 50 µM at ABCB1 [4]; 92.7 µM in the data set with A431-ABCB1. For the same compound, in [2], the excretion result is “a major fraction of the dose is excreted renally and biliary in unchanged form”. For the same compound, in [2], the extent of metabolism entry is “minimally metabolized”. The “toxicity in MTT viability experiment” value with MCF-7 cells was “negligibly toxic”. In addition, the ABCB1 substrate status entry on ABCB1 [3] is “substrate of ABCB1”.

Values taken from paper PMC9697930 (International Journal of Molecular Sciences, 2022).
